Source: patent publication US20260055103A1, “2,3,4,9-TETRAHYDRO-1H-PYRIDO[3,4-B]INDOLE DERIVATIVES AS ESTROGEN RECEPTOR MODULATORS FOR THE TREATMENT OF CANCER” (Olema Pharmaceuticals, Inc., priority 2022, published 2026)

Molecular target: T1, estrogen receptor (Homo sapiens, UniProt P03372)
T1 construct: endogenous in cells; host or cells: ECC-1 cells
T1 sequence (P03372 1-595): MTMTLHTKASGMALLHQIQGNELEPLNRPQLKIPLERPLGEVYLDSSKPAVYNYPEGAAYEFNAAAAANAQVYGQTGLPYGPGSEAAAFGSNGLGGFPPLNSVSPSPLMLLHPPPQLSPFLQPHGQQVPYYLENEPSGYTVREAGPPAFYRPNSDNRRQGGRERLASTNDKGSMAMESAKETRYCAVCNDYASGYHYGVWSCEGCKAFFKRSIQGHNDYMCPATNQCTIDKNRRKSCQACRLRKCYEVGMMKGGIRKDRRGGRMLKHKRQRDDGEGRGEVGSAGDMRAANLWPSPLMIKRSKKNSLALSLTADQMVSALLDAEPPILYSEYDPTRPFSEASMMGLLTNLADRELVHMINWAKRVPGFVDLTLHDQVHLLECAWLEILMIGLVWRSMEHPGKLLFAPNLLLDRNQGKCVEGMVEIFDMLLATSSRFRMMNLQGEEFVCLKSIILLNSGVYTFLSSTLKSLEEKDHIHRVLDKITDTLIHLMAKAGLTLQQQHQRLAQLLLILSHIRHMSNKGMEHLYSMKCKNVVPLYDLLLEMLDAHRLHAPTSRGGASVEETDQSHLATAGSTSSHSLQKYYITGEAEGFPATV
Experiment: Alkaline phosphatase (AP) assay in ECC-1 cells, agonist mode (no E2) and antagonist mode (500 pM E2)
Format: cell-based
Settings: 3 days, AP activity normalized to 500 pM E2 alone, agonist mode without E2, antagonist mode with 500 pM E2
Procedure, shortened: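 ECC-1 cells in hormone-depleted medium treated 3 days with compound alone (agonist mode) or with 500 pM E2 (antagonist mode). Alkaline phosphatase read by p-nitrophenyl phosphate hydrolysis, 40 min at 42° C, A405. Activity normalized to 500 pM E2 alone.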

| Structure (SMILES) | Activity (estrogen receptor modulation, agonism and antagonism) |
| --- | --- |
| C[C@@H]1Cc2c([nH]c3ccccc23)[C@@H](c2ccc(CC3CN(CCCF)C3)s2)N1CC(F)(F)C(F)(F)F [Example I-28, (1S,3R)-1-(5-((1-(3-fluoropropyl)azetidin-3-yl)methyl)thiophen-2-yl)-3-methyl-2-(2,2,3,3,3-pentafluoropropyl)-2,3,4,9-tetrahydro-1H-pyrido[3,4-b]indole] | ++ (estrogen receptor antagonism having (i) between 10% and 80% increase in the E2-normalized signal in the AP assay (agonist mode) and (ii) between 10% and 80% reduction in the E2-normalized signal in the AP assay (antagonist mode)) |
| C[C@@H]1Cc2c([nH]c3ccccc23)[C@@H](c2cnc(C[C@@H]3CCN(CCCF)C3)s2)N1CC(F)F [Example I-41, 5-[(1S,3R)-2-(2,2-difluoroethyl)-3-methyl-1,3,4,9-tetrahydropyrido[3,4-b]indol-1-yl]-2-[[(3S)-1-(3-fluoropropyl)pyrrolidin-3-yl]methyl]thiazole] | ++ (estrogen receptor antagonism having (i) between 10% and 80% increase in the E2-normalized signal in the AP assay (agonist mode) and (ii) between 10% and 80% reduction in the E2-normalized signal in the AP assay (antagonist mode)) |
| CCCN1CC(Cc2sc([C@@H]3c4[nH]c5ccccc5c4C[C@@H](C)N3CC(C)(C)F)cc2C)C1 [Example I-8, (1S,3R)-2-(2-fluoro-2-methylpropyl)-3-methyl-1-(4-methyl-5-((1-propylazetidin-3-yl)methyl)thiophen-2-yl)-2,3,4,9-tetrahydro-1H-pyrido[3,4-b]indole] | ++ (estrogen receptor antagonism having (i) between 10% and 80% increase in the E2-normalized signal in the AP assay (agonist mode) and (ii) between 10% and 80% reduction in the E2-normalized signal in the AP assay (antagonist mode)) |
| C#CCN1CC(Cc2ccc([C@@H]3c4[nH]c5ccccc5c4C[C@@H](C)N3CC(C)(C)F)s2)C1 [Example I-58, (1S,3R)-2-(2-fluoro-2-methyl-propyl)-3-methyl-1-[5-[(1-prop-2-ynylazetidin-3-yl)methyl]-2-thienyl]-1,3,4,9-tetrahydropyrido[3,4-b]indole] | + (estrogen receptor agonism having (i) at least 80% increase in the E2-normalized signal in the AP assay (agonist mode) and (ii) no more than 80% reduction in the E2-normalized signal in the AP assay (antagonist mode)) |
| C[C@@H]1Cc2c([nH]c3ccccc23)[C@@H](c2cnc(N[C@H]3CN(CCCF)C[C@H]3F)s2)N1CC(F)(F)CO [Example I-64, 2,2-difluoro-3-[(1S,3R)-1-[2-[[(3S,4R)-4-fluoro-1-(3-fluoropropyl)pyrrolidin-3-yl]amino]thiazol-5-yl]-3-methyl-1,3,4,9-tetrahydropyrido[3,4-b]indol-2-yl]propan-1-ol] | ++ (estrogen receptor antagonism having (i) between 10% and 80% increase in the E2-normalized signal in the AP assay (agonist mode) and (ii) between 10% and 80% reduction in the E2-normalized signal in the AP assay (antagonist mode)) |
| CCCN1CC(Cc2sc([C@@H]3c4[nH]c5ccccc5c4C[C@@H](C)N3CC(C)(C)F)cc2F)C1 [Example I-10, (1S,3R)-2-(2-fluoro-2-methylpropyl)-1-(4-fluoro-5-((1-propylazetidin-3-yl)methyl)thiophen-2-yl)-3-methyl-2,3,4,9-tetrahydro-1H-pyrido[3,4-b]indole] | ++ (estrogen receptor antagonism having (i) between 10% and 80% increase in the E2-normalized signal in the AP assay (agonist mode) and (ii) between 10% and 80% reduction in the E2-normalized signal in the AP assay (antagonist mode)) |
| CCCN1CC[C@@H](Cc2ncc([C@@H]3c4[nH]c5ccccc5c4C[C@@H](C)N3CC(F)(F)CO)s2)C1 [Example I-46, 2,2-difluoro-3-((1S,3R)-3-methyl-1-(2-(((S)-1-propylpyrrolidin-3-yl)methyl)thiazol-5-yl)-1,3,4,9-tetrahydro-2H-pyrido[3,4-b]indol-2-yl)propan-1-ol] | ++ (estrogen receptor antagonism having (i) between 10% and 80% increase in the E2-normalized signal in the AP assay (agonist mode) and (ii) between 10% and 80% reduction in the E2-normalized signal in the AP assay (antagonist mode)) |
